In publication PMC3256212, “Mechanism and Function of Drosophila capa GPCR: A Desiccation Stress-Responsive Receptor with Functional Homology to Human NeuromedinU Receptor” (PLoS ONE, 2012) one finds EC50 data, which are given here for one compound.

This assay has as its system tubule principal cells. Set-up: species or system Drosophila melanogaster. Here is the method: All lines were maintained on a standard Drosophila diet at 22°C, 55% humidity on a 12∶12 h light∶dark photoperiod. Wild-type flies were obtained from a Canton-S (CS) stock. In order to drive cell- and tissue-specific gene expression of gene(s) of choice in vivo, the GAL4/UAS system was used, in which cell- or tissue-specific GAL4 ‘drivers’ enable binary expression of genes cloned downstream of the GAL4-binding Upstream Activating Sequence. Thus, for intact tubules, principal cell-specific expression can be driven using either c42-GAL4 [16] or Urate-Oxidase-GAL4 [17] drivers in an otherwise normal fly. […] Validation of the capaR RNAi line was confirmed by quantitative Q-RT-PCR using the primers 5′-[…]-3′ and 5′-[…]-3′ (Fig. S1). […]
Drosophila S2 cells, cultured under standard conditions were transiently transfected with the apoaequorin ORF [21] and a receptor ORF construct, and expression induced using CuSO4. […] Bioluminescence recordings were carried out using a Mithras LB940 automated 96-well plate reader (Berthold Technologies) and MikroWin software. […] At the end of each recording samples were disrupted by the addition of 100 µl lysis solution, and the [Ca^2+] concentrations calculated as previously described. […]

The structures appear in SMILES notation. Peptide text beside a SMILES is read from it.

The term EC50 denotes the concentration at which the effect is half-maximal. A low value points to a more potent agent. As for `CC(C)C[C@H](NC(=O)[C@H](Cc1ccccc1)NC(=O)[C@H](Cc1ccc(O)cc1)NC(=O)CNC(=O)[C@H](CCCNC(=N)N)NC(=O)[C@H](CO)NC(=O)[C@H](CCC(N)=O)NC(=O)[C@H](CO)NC(=O)[C@H](C)NC(=O)[C@H](Cc1ccccc1)NC(=O)[C@@H]1CCCN1C(=O)[C@H](CO)NC(=O)[C@H](CCC(N)=O)NC(=O)[C@H](Cc1ccccc1)NC(=O)[C@H](CCC(=O)O)NC(=O)[C@H](CCC(=O)O)NC(=O)[C@H](CC(=O)O)NC(=O)[C@@H](NC(=O)[C@H](CCCNC(=N)N)NC(=O)[C@@H](N)Cc1ccccc1)C(C)C)C(=O)N[C@@H](Cc1ccccc1)C(=O)N[C@@H](CCCNC(=N)N)C(=O)N1CCC[C@H]1C(=O)N[C@@H](CCCNC(=N)N)C(=O)N[C@@H](CC(N)=O)C(N)=O` [NMU-25, reference compound] (H-FRVDEEFQSPFASQSRGYFLFRPRN-NH2), the 50% effective concentration (EC50) was determined as 27.1 nM.
